According to PMC7357169, “Blinded, Multicenter Evaluation of Drug-induced Changes in Contractility Using Human-induced Pluripotent Stem Cell-derived Cardiomyocytes” (Toxicological Sciences, 2020):
Where two headings read alike, the source gives them in different places.

Key:
hiPSC-CM EHTs = test: EHT contractility with beat rate slowed by 300 nM ivabradine and electrical pacing 0.5-2.0 Hz; type: cell-based, human; conditions: for CA response: EHTs with 300 nM ivabradine, paced, only at 0.5 and 0.7 Hz, sometimes at 1 Hz, never at 1.5 or 2 Hz, high concentration bolus
Experimental: We extended these studies to the 3D EHT platform, this time slowing spontaneous beating to < 0.5 Hz with 300 nM ivabradine, a pharmacological blocker of the “funny” If current ([Bois et al., 1996]). […] Whereas force-frequency relationships was negative above 1.5 Hz, it was positive between 0.5 and 1.5 Hz, evidenced by a 147% increase in force generation concurrent with significant shortening of CT and RT (Supplementary Figure 6). We therefore re-evaluated 6 of the PIs in the presence of 300 nM ivabradine with electrical pacing at 0.5, 0.7, 1.0, 1.5, and 2.0 Hz. These also included epinephrine, levosimendan, and pimobendan, which had been incorrectly predicted by EHT:R-PAT and/or EHT:ERC platform-cell combinations. […] Thus, in both 2D and 3D configurations, lower beating frequencies led to increased predictivity for PIs.
Figure 5. Slowed beat rate increases the predictivity of positive inotropes (PIs) in 3D engineered heart tissues (EHTs). Contraction analysis was carried out using EHTs with 6 of the PIs from the drug test set: epinephrine (Epi), forskolin (For), levosimendan (Lev), pimobendan (Pim), dobutamine (Dob), and milrinone (Mil) which had been predicted with variable accuracy (Figure 4A, web tool). […] Scatter plots show percentage changes relative to baseline at respective frequency. Averaged peaks for force are shown for baseline (BL, black peaks) versus after treatment in EHTs paced at 0.5 Hz (blue peaks) or 2.0 Hz (red peaks). Dunnett’s stats versus baseline at respective frequency: *p < .05; **p < .01; ***p < .001; ****p < .0001.
Supplementary Figure 6. Positive force frequency relationship in EHTs paced between 0.5 and 1.5 Hz. Spontaneous beat rate of EHTs was reduced by 3 hour pre-treatment with 300 nM ivabradine, an If current inhibitor. […] CA increased from 0.5 to 1.5 Hz but plateaued and declined at higher frequencies. These changes were reflected in the CT and RT data. Dunnett's stats vs vehicle control: *, P<0.05; **, P<0.01; ***, P<0.001; ****, P<0.0001.

cardiac contractility = conditions: cited from earlier work; for EC50: read-out: Expected effect on contractility in isolated cardiomyocytes/heart muscles, EC50; for NIE: ref (Perez et al. 1995), (Boldt et al. 2010), (Bois et al. 1996), (Mesirca et al. 2014), (Choi et al. 2016)
heart = tested on: heart; parameters: method as in Refs column of Supplementary Table 1; conditions: Refs of Supplementary Table 1; cited from earlier work
PDE3 = tested on: PDE3; parameters: method as in Refs column of Supplementary Table 1; conditions: Refs of Supplementary Table 1; read-out: PDE3 inhibitor IC50; cited from earlier work
[1] = cited from earlier work; for FTPC: free therapeutic plasma concentration, Refs of Supplementary Table 1; for FPTC (free plasma therapeutic concentration): ref Supplementary Table 1
R-PAT hiPSC-CMs = test: CO:R-PAT contractility, refined conditions (RPMI-B27, slowed beat rate); type: cell-based, human; conditions: analysis of different stages of relaxation; platform taken from context (CO:R-PAT)
Excerpt: The hiPSC-CMs used were R-PAT (derived and differentiated in house as described previously) ([Mosqueira et al., 2018]; [Smith et al., 2018]), and iCell^2 and Pluricyte (purchased from Cellular Dynamics International and Ncardia). Manufacturer instructions were followed for the commercial hiPSC lines. For iCell^2, seeding was at 25 000 cells into each well of 96-well plates (Nunclon Delta Surface; Thermo, 167008) and then maintained for 10 days before use in drug evaluation studies. The same plates were used for R-PAT hiPSC-CMs, which were seeded at 40 000 cells/well and maintained until days 20 and 21 of differentiation before use. For Pluricyte hiPSC-CMs, seeding was at 35 000 cells into each well of 96-well plates (Greiner Bio-One; 655087) and then maintained for 8 days before use. […]
hiPSC-CMs in 96-well plate were transiently loaded in 50 µl/well of SFM containing FluoVolt (1:200 part B, 1:2000 part A; Life Tech, F10488) for 20 min at 37°C and 5% CO2. […] Electrophysiology data were analyzed using CellOPTIQ proprietary software of Clyde Biosciences and were normalized to a maximum amplitude of 1 and minimum of 0 to standardize height for comparison of traces created in OriginPro (OriginLab version 7.5). Contractility data were analyzed based on pixel displacement using an ImageJ plug-in. […]

[2] = tested on: adult rabbit ventricular cardiomyocytes; test: CellOPTIQ (CO) contractility, adult rabbit ventricular cardiomyocytes; type: cell-based; conditions: isolated rabbit myocytes; not reported in any hiPSC-CM platform
Experimental: Hearts were removed and perfused retrogradely at 25 ml⋅min^−1 (37°C) with a modified KH solution containing 0.75 mmol/l [Ca^2+] for 5 min, followed by a nominally Ca^2+-free KH solution with 0.1 mmol/l EGTA for 5 min. Hearts were then perfused with KH solution containing 0.24 mmol/l [Ca^2+], 1 mg/ml collagenase (type I), and 0.06 mg/ml protease (type XIV). After approximately 4–5 min, enzyme was removed and the left ventricular free wall was then cut into strips in the recirculated enzyme solution containing 1% bovine serum albumin before being mixed to yield a single cell suspension. Cells were maintained in either Ca^2+-free KH solution or 1 mmol/l Ca^2+ (via stepwise increments) until use. Intact cardiomyocytes in 1.8 mmol/l modified Ca^2+ KH solution were loaded with FluoVolt (Thermo Fisher Scientific) at 1:3000 dilution for 10 min. The incubation medium was removed and the cells resuspended in a modified KH solution.
Cardiomyocytes were allowed to settle on a coverslip in a bath (35 mm petri-dish) at 37°C. […] A parallel set of vehicle (DMSO) time control experiments were also performed FluoVolt fluorescence (490 nm excitation) was measured at a sampling rate of 10 KHz, whereas the image was recorded on a CCD camera at 100 Hz frame rate using > 700 nm light. […]

hiPSC-CMs = tested on: hiPSC-CMs; parameters: method as in Zhao et al., 2019; conditions: hiPSC-CMs under loaded conditions; ref Zhao et al., 2019; cited from earlier work
[3] = isolated cardiomyocytes/heart muscles, Refs of Supplementary Table 1

Row | Structure (SMILES) | CA response (hiPSC-CM EHTs) | Expected effect on contractility in isolated cardiomyocytes/heart muscles (cardiac contractility; [3]) | PCl+PL (cardiac contractility; [3]) [%] | Small PI (cardiac contractility; [3]) [%] | EC50 (cardiac contractility; [3]) [nM] | Expected cardiac effects in vivo (heart) | IC50 (PDE3) [nM] | FTPC [1] [µM] | FPTC (free plasma therapeutic concentration) [1] [µM] | relaxation analysis at 80% relaxation (R-PAT hiPSC-CMs) | spontaneous beating of EHTs (hiPSC-CM EHTs; 300 nM ivabradine) [Hz] | NIE (cardiac contractility; guinea pig PM, at 100 µM) [%] | NIE (cardiac contractility; guinea pig atria, at 100 µM) [%] | NIE (cardiac contractility; human trabeculae at 100 µM) [%] | spontaneous diastolic SR Ca2+ release [2] | relaxation analysis at 50% relaxation (R-PAT hiPSC-CMs) | inotropy in Biowire II constructs (hiPSC-CMs)
1 | C[C@@H]1CC(=O)NN=C1c1ccc(NN=C(C#N)C#N)cc1 [Levosimendan] | increased contraction amplitude | Small PI (~50%), PC#, PCl+PL (14%) | 14 | ~50 | ~100 | PI, PC (more heart rate increase and RR decrease than dobutamine) | 25 | 0.026 to 0.35 | 0.026 to 0.35 |  |  |  |  |  |  |  | 
2 | COc1cc2c(cc1OC)CC(=O)N(CCCN(C)C[C@H]1Cc3cc(OC)c(OC)cc31)CC2 [Ivabradine] |  | None, NC at >10 µM (spontaneously beating preps), NIE (-13/-60% in guinea pig atria/PM, -38% human trabeculae at 100 µM); PI in mouse left atria and 30% of human trabeculae |  |  |  |  |  | 0.01 to 0.1 | 0.01 to 0.1 | late relaxation deficit | < 0.5 | -60 | -13 | -38 |  |  | 
3 | C=C[C@@]1(C)CC(=O)[C@]2(O)[C@@]3(C)[C@@H](O)CCC(C)(C)[C@@H]3[C@H](O)[C@H](OC(C)=O)[C@@]2(C)O1 [Forskolin] | increased contraction amplitude |  |  |  | 5000 to 10000 | PI, PC |  | 0.012 to 0.024 | 0.012 to 0.024 |  |  |  |  |  | spontaneous diastolic Ca^2+ release and associated diastolic shortening was observed |  | 
4 | CC(CCc1ccc(O)cc1)NCCc1ccc(O)c(O)c1 (centres unmarked) [Dobutamine] | increased contraction amplitude |  |  |  | 1000 to 3000 |  |  | 0.07 to 1 | 0.07 to 1 |  |  |  |  |  |  | positive lusitropy | 
5 | Cc1[nH]c(=O)c(C#N)cc1-c1ccncc1 [Milrinone] | increased contraction amplitude | Small PI, PC#, PCl, PL (smaller than ISO) |  |  | 60000 | PI, PC (more heart rate increase and RR decrease than dobutamine) |  | 0.1 to 0.15 | 0.1 to 0.15 |  |  |  |  |  |  |  | positive inotropy
